Assay results: patent publication US11505556B2, “Halogenated derivatives of morphinans and uses thereof” (Xalud Therapeutics, Inc., priority 2017, dated 2022)

Key:
[1] = test system: EAE (multiple sclerosis model) pain; experiment: Experimental Autoimmune Encephalomyelitis (EAE) model, mechanical allodynia; format: in vivo, rat; conditions: both paws
Description: The Experimental Autoimmune Encephalomyelitis (EAE) Model has been developed as a rat model of multiple sclerosis (Sloane, E. et al. Brain Behav. Immun. 2009, 23, 92-100). The model encompasses the injection of myelin oligodendrocyte glycoprotein (MOG) or similar glycoprotein to establish and antibody reaction that damages spinal nerve fibers leading to a progression of motor and sensory deficits. The rapid progression of deficits can be slowed by reduction of the MOG dose, enabling testing for pain responses prior to the development of hind limb paresis.
Reduced-dose MOG or saline (sham) was administered intradermally at the base of the tail. Mechanical allodynia pain testing was performed on hind left and right paws by application of Semmes-Weinstein (“von Frey”) monofilaments calibrated for different bending forces for 8 seconds to determine the paw-withdrawal threshold. On day 15 post EAE induction, after reduction in the paw-withdrawal threshold (establishment of mechanical allodynia pain), subcutaneous injection of 15 mg/kg XT-203 or saline was administered three times/day for 15 days. Behavioral data were analyzed with two-way ANOVA. For all tests, statistical significance was set to p<0.05 (*).

in vitro [2] = conditions: mouse, hepatocytes
in vitro [3] = conditions: rat, cultured hepatocytes
BV-2 cells = experiment: Cell viability of BV-2 cells; format: cell-based, mouse; conditions: BV2 cells, FIGS. 7, 8B to 8D
Description: Cell viability was also measured by a standard assay, e.g., measurement of the release of cytoplasm-resident enzymes in the tissue culture supernatant or media to detect cell loss/lysis/rupture.

in vitro [4] = conditions: monkey, cultured hepatocytes
Human hepatocytes = experiment: Hepatocyte elimination of parent compound; conditions: hepatocytes

COc1ccc2c3c1O[C@@H]1C(F)CCC4[C@H](C2)N(CC2CC2)CC[C@]341 (stereo partly shown) [XT-203]
pain responses in MOG-treated rats ([1]; 15 mg/kg SC three times/day for 15 days from day 15 post EAE induction): did reverse pain responses
pain response in sham non-MOG rats ([1]; 15 mg/kg SC three times/day for 15 days): no effect
half-life (in vitro [2]): ~27 min
half-life (in vitro [3]): 13.2 min
cell viability (BV-2 cells): good viability
half-life (in vitro [4]): 13.7 min
half-life in human hepatocytes compared to (+)-NTX and AK-17 (Human hepatocytes): enhanced half-life
